# Measurements reported in patent US8455640B2, “Process for statins and its pharmaceutically acceptable salts thereof” (MSN Laboratories Limited, priority 2006, dated 2013).
# Experiment: solubility of the calcium salt in aqueous methanol / methanol
# Assay type: physicochemical
smiles,measurement,setting,value
"CC(C)c1nc(N(C)S(C)(=O)=O)nc(-c2ccc(F)cc2)c1/C=C/[C@@H](O)C[C@@H](O)CC(=O)[O-].CC(C)c1nc(N(C)S(C)(=O)=O)nc(-c2ccc(F)cc2)c1/C=C/[C@@H](O)C[C@@H](O)CC(=O)[O-].[Ca+2] [formula (1a), rosuvastatin calcium]",solubility in an aqueous methanol,calcium salt prepared by the present invention (calcium acetate as calcium source),freely soluble
same,solubility in an aqueous methanol,"calcium salt prepared by the prior art process (U.S. Pat. No. 5,260,440; sodium chloride byproducts)",poor solubility
